Experimental data as given in patent publication US11926614B2, “1,2,4-triazole derivatives as tankyrase inhibitors” (priority 2018, dated 2024).
“And” between values parts separate entries of the source, which are not always exact repeats. Equal entries are not always repeated. Where two headings read alike, the source gives them in different places.

Experiments:
HEK293 = experiment: Cellular IC50 HEK293; assay type: cell-based
Text: (§1) XLfit (idbs) was used to determine the IC50-values in inhibition experiments. The following formula was chosen to fit the data points (Langmuir Binding Isotherm): fit=((A+(B*x))+4(C−B)*(1−exp((−1*D)*x)))/D)), res=(y−fit)

TNKS2 = TNKS2 (Homo sapiens (Human), UniProt Q9H2K2); experiment: Biochemical IC50 TNKS2
Chain of TNKS2 (Q9H2K2 whole entry): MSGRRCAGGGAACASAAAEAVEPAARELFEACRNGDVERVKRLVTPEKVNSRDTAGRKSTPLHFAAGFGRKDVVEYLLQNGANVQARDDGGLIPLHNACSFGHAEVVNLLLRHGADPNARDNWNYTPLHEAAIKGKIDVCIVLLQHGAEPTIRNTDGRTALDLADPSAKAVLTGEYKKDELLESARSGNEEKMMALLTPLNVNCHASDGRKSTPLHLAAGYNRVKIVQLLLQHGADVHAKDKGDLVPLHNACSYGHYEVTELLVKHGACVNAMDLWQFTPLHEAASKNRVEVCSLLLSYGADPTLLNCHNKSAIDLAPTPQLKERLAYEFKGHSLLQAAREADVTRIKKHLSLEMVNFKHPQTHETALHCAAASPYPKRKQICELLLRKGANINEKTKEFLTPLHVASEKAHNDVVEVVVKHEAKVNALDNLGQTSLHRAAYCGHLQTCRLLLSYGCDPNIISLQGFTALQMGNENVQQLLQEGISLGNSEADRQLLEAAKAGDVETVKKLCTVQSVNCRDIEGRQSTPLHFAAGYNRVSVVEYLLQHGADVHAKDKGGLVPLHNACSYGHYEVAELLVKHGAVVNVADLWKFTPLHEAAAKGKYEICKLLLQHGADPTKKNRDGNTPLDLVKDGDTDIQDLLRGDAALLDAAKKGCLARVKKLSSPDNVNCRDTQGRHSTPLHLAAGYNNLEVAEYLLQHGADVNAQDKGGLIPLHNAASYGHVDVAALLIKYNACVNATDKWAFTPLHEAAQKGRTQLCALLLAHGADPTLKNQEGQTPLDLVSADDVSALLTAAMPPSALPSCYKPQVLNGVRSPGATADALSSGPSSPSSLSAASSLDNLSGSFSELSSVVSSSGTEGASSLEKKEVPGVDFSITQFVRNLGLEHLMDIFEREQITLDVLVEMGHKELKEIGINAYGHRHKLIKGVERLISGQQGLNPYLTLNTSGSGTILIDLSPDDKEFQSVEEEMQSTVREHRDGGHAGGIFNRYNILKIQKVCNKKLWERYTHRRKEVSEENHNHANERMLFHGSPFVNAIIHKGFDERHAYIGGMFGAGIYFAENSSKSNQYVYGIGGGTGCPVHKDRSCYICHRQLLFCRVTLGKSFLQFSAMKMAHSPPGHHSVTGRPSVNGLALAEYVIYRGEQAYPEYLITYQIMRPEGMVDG
Text: as §1

[1] = Homo sapiens, HEK293, HEK293; read-out: Cellular IC50 HEK293
[2] = Homo sapiens, HEK293, read-out: Cellular IC50 HEK293
[3] = read-out: Biochemical IC50 TNKS2
[4] = Homo sapiens, HEK293; read-out: Cellular IC50 HEK293

SMILES	IC50 (HEK293; [1]) [nM]	IC50 (HEK293; [2]) [nM]	IC50 (TNKS2; [3])	IC50 (HEK293; [4]) [nM]	IC50 (TNKS2) [nM]
CCOc1ccc(-c2nnc([C@H]3C[C@H](NC(=O)c4cccc5cccnc45)C3)n2-c2ccccc2)nc1 [Example 71, N-((1r,3r)-3-(5-(5-ethoxypyridin-2-yl)-4-phenyl-4H-1,2,4-triazol-3-yl)cyclobutyl)quinoline-8-carboxamide]	1.8				
O=C(N[C@H]1C[C@H](c2nnc(-c3cnccn3)n2-c2ccccc2F)C1)c1ccccn1 [Example 91, N-((1S,3r)-3-(4-(2-fluorophenyl)-5-(pyrazin-2-yl)-4H-1,2,4-triazol-3-yl)cyclobutyl)picolinamide]		355	280 nM		
CCOc1ccc(-c2nnc([C@H]3C[C@H](NC(=O)c4ccccn4)C3)n2-c2ccc(C)s2)nc1 [Example 81, N-((1r,3r)-3-(5-(5-ethoxypyridin-2-yl)-4-(5-methylthiophen-2-yl)-4H-1,2,4-triazol-3-yl)cyclobutyl)picolinamide]		37	4.6 nM		
O=C(N[C@H]1C[C@H](c2nnc(-c3nccs3)n2-c2ccncc2)C1)c1cccc2cccnc12 [Example 146, N-((1r,3r)-3-(4-(pyridin-4-yl)-5-(thiazol-2-yl)-4H-1,2,4-triazol-3-yl)cyclobutyl)quinoline-8-carboxamide]	80		16 nM		
O=C(N[C@H]1C[C@H](c2nnc(-c3ccncn3)n2-c2ccccc2Cl)C1)c1cccc2ncccc12 [Example 7, N-((1S,3r)-3-(4-(2-chlorophenyl)-5-(pyrimidin-4-yl)-4H-1,2,4-triazol-3-yl)cyclobutyl)quinoline-5-carboxamide]	750		350 nM		
CCOc1ccc(-c2nnc([C@H]3C[C@H](NC(=O)c4ccc5cc(F)ccc5n4)C3)n2-c2ccccc2F)nc1 [Example 155, N-((1S,3r)-3-(5-(5-ethoxypyridin-2-yl)-4-(2-fluorophenyl)-4H-1,2,4-triazol-3-yl)cyclobutyl)-6-fluoroquinoline-2-carboxamide]	12		9.1 nM		
CCOc1ccc(-c2nnc([C@H]3C[C@H](NC(=O)c4cn5ccccc5n4)C3)n2-c2ccccc2F)nc1 [Example 118, N-((1S,3r)-3-(5-(5-ethoxypyridin-2-yl)-4-(2-fluorophenyl)-4H-1,2,4-triazol-3-yl)cyclobutyl)imidazo[1,2-a]pyridine-2-carboxamide]	100		12 nM		
O=C(N[C@H]1C[C@H](c2nnc(-c3ccc(OC(F)F)cn3)n2-c2ccccc2F)C1)c1ccc2cnccc2n1 [Example 184, N-((1S,3r)-3-(5-(5-(difluoromethoxy)pyridin-2-yl)-4-(2-fluorophenyl)-4H-1,2,4-triazol-3-yl)cyclobutyl)-1,6-naphthyridine-2-carboxamide]	10		3.4 nM		
CCOc1ccc(-c2nnc([C@H]3C[C@H](NC(=O)c4ccnc5cc(F)cnc45)C3)n2-c2cccnc2)nc1 [Example 164, N-((1r,3r)-3-(5-(5-ethoxypyridin-2-yl)-4-(pyridin-3-yl)-4H-1,2,4-triazol-3-yl)cyclobutyl)-7-fluoro-1,5-naphthyridine-4-carboxamide]		9	5.8 nM		
CCOc1ccc(-c2nnc([C@H]3C[C@H](NC(=O)c4ccc(F)cn4)C3)n2-c2ccccc2F)nc1 [Example 59, N-((1S,3r)-3-(5-(5-ethoxypyridin-2-yl)-4-(2-fluorophenyl)-4H-1,2,4-triazol-3-yl)cyclobutyl)-5-fluoropicolinamide]	9.5		2.4 nM		
CCOc1ccc(-c2nnc([C@H]3C[C@H](NC(=O)c4nn(C)c5ccccc45)C3)n2-c2ccccc2F)nc1 [Example 153, N-((1S,3r)-3-(5-(5-ethoxypyridin-2-yl)-4-(2-fluorophenyl)-4H-1,2,4-triazol-3-yl)cyclobutyl)-1-methyl-1H-indazole-3-carboxamide]	56		13 nM		
O=C(N[C@H]1C[C@H](c2nnc(-c3nccs3)n2-c2ccc(Cl)s2)C1)c1ccnc2cccnc12 [Example 78, N-((1r,3r)-3-(4-(5-chlorothiophen-2-yl)-5-(thiazol-2-yl)-4H-1,2,4-triazol-3-yl)cyclobutyl)-1,5-naphthridine-4-carboxamide]	1.1		2 nM		
O=C(N[C@H]1C[C@H](c2nnc(-c3nccs3)n2-c2ccccc2)C1)c1ccccn1 [Example 32, N-((1r,3r)-3-(4-phenyl-5-(thiazol-2-yl)-4H-1,2,4-triazol-3-yl)cyclobutyl)picolinamide]	229		49 nM		
O=C(NC12CC(c3nnc(-c4ccncn4)n3-c3ccccc3Cl)(C1)C2)c1ccccc1 [Example 23, N-(3-(4-(2-chlorophenyl)-5-(pyrimidin-4-yl)-4H-1,2,4-triazol-3-yl)bicyclo[1.1.1]pentan-1-yl)benzamide]	100		3.8 nM		
CCOc1ccc(-c2nnc([C@H]3C[C@H](NC(=O)c4ccnc5cccnc45)C3)n2-c2ccccc2Cl)nc1 [Example 135, N-((1S,3r)-3-(4-(2-chlorophenyl)-5-(5-ethoxypyridin-2-yl)-4H-1,2,4-triazol-3-yl)cyclobutyl)-1,5-naphthyridine-4-carboxamide]	0.33		1.9 nM		
CCOc1ccc(-c2nnc([C@H]3C[C@H](NC(=O)c4ccc5cccnc5n4)C3)n2-c2ccccc2F)nc1 [Example 147, N-((1S,3r)-3-(5-(5-ethoxypyridin-2-yl)-4-(2-fluorophenyl)-4H-1,2,4-triazol-3-yl)cyclobutyl)-1,8-naphthyridine-2-carboxamide]	78		19 nM		
O=C(N[C@H]1C[C@H](c2nnc(-c3nccs3)n2-c2ccccc2Cl)C1)c1ccccc1 [Example 43, N-((1S,3r)-3-(4-(2-chlorophenyl)-5-(thiazol-2-yl)-4H-1,2,4-triazol-3-yl)cyclobutyl)benzamide]	82		7.9 nM		
O=C(N[C@H]1C[C@H](c2nnc(-c3nccs3)n2-c2ccccc2Cl)C1)c1ccc(F)cc1 [Example 44, N-((1S,3r)-3-(4-(2-chlorophenyl)-5-(thiazol-2-yl)-4H-1,2,4-triazol-3-yl)cyclobutyl)-4-fluorobenzamide]	50		13 nM		
O=C(N[C@H]1C[C@H](c2nnc(-c3ccncn3)n2-c2ccccc2Cl)C1)c1ccnc2cccnc12 [Example 5, N-((1S,3r)-3-(4-(2-chlorophenyl)-5-(pyrimidin-4-yl)-4H-1,2,4-triazol-3-yl)cyclobutyl)-1,5-naphthyridine-4-carboxamide]			0.85 nM	1	
CCOc1ccc(-c2nnc(C34CC(NC(=O)c5ccnc6cccnc56)(C3)C4)n2-c2ccccc2F)nc1 [Example 62, N-(3-(5-(5-ethoxypyridin-2-yl)-4-(2-fluorophenyl)-4H-1,2,4-triazol-3-yl)bicyclo[1.1.1]pentan-1-yl)-1,5-naphthyridine-4-carboxamide]	2.1		1.3 nM		
CCOc1ccc(-c2nnc([C@H]3C[C@H](NC(=O)c4nc5ccccc5[nH]4)C3)n2-c2ccc(C)s2)nc1 [Example 143, N-((1r,3r)-3-(5-(5-ethoxypyridin-2-yl)-4-(5-methylthiophen-2-yl)-4H-1,2,4-triazol-3-yl)cyclobutyl)-1H-benzo[d]imidazole-2-carboxamide]	94		11 nM		
[2H]C([2H])([2H])C([2H])([2H])Oc1ccc(-c2nnc([C@H]3C[C@H](NC(=O)c4ccnc5cc(F)cnc45)C3)n2-c2ccccc2F)nc1 [Example 94, N-((1S,3r)-3-(5-(5-(ethoxy-d5)pyridin-2-yl)-4-(2-fluorophenyl)-4H-1,2,4-triazol-3-yl)cyclobutyl)-7-fluoro-1,5-naphthyridine-4-carboxamide]				0.45	2.7
O=C(N[C@H]1C[C@H](c2nnc(-c3nccs3)n2-c2ccccc2Cl)C1)c1ccnc2cccnc12 [Example 41, N-((1S,3r)-3-(4-(2-chlorophenyl)-5-(thiazol-2-yl)-4H-1,2,4-triazol-3-yl)cyclobutyl)-1,5-naphthyridine-4-carboxamide]	0.65		2 nM		
CCOc1ccc(-c2nnc([C@H]3C[C@H](NC(=O)c4ccccn4)C3)n2-c2ccccc2F)nc1 [Example 54, N-((1S,3r)-3-(5-(5-ethoxypyridin-2-yl)-4-(2-fluorophenyl)-4H-1,2,4-triazol-3-yl)cyclobutyl)picolinamide]				17	
O=C(N[C@H]1C[C@H](c2nnc(-c3nccs3)n2-c2ccccc2F)C1)c1ccnc2cc(F)cnc12 [Example 29, 7-fluoro-N-((1S,3r)-3-(4-(2-fluorophenyl)-5-(thiazol-2-yl)-4H-1,2,4-triazol-3-yl)cyclobutyl)-1,5-naphthyridine-4-carboxamide]	1.3				
CCOc1ccc(-c2nnc([C@H]3C[C@H](NC(=O)c4ccc(F)cc4)C3)n2-c2ccccc2F)nc1 [Example 56, N-((1S,3r)-3-(5-(5-ethoxypyridin-2-yl)-4-(2-fluorophenyl)-4H-1,2,4-triazol-3-yl)cyclobutyl)-4-fluorobenzamide]			10 nM and 2 nM		
CCOc1ccc(-c2nnc([C@H]3C[C@H](NC(=O)c4cccc5nccnc45)C3)n2-c2ccccc2F)nc1 [Example 154, N-((1S,3r)-3-(5-(5-ethoxypyridin-2-yl)-4-(2-fluorophenyl)-4H-1,2,4-triazol-3-yl)cyclobutyl)quinoxaline-5-carboxamide]		0.53			
[2H]C([2H])([2H])C([2H])([2H])Oc1ccc(-c2nnc([C@H]3C[C@H](NC(=O)c4ccccn4)C3)n2-c2ccccc2F)nc1 [Example 93, N-((1S,3r)-3-(5-(5-(ethoxy-d5)pyridin-2-yl)-4-(2-fluorophenyl)-4H-1,2,4-triazol-3-yl)cyclobutyl)picolinamide]				9.5	
O=C(N[C@H]1C[C@H](c2nnc(-c3ccncn3)n2-c2ccccc2Cl)C1)c1c(F)cccc1F [Example 16, N-((1S,3r)-3-(4-(2-chlorophenyl)-5-(pyrimidin-4-yl)-4H-1,2,4-triazol-3-yl)cyclobutyl)-2,6-difluorobenzamide]	7680				
